{
  "source": "patent US12070033B1",
  "about": "“Aquatic herbicide having non-herbicidal functional ingredients” (SePRO Corporation, priority 2019, dated 2024)",
  "test_system": "hydrilla",
  "assay": "Total phosphorus extracted from hydrilla and from the water in which it was located",
  "format": "in vivo, Hydrilla verticillata",
  "settings": "5 ppm dipotassium endothall",
  "experimental": "Turning now to FIG. 7, treatment of aquatic weeds with the aquatic herbicidal formulation results in both an increased release of nutrients, such as phosphorus, from treated plants and a reduction from the water column of those nutrients released. In one experiment, total phosphorus was extracted from hydrilla and from water in which the hydrilla was located. In one test group, the hydrilla was untreated (control group). In a second test group, the hydrilla was treated with Formulation 1 (5 ppm dipotassium endothall) and, in a third test group, the hydrilla was treated with Aquathol® K (5 ppm dipotassium endothall). In the untreated control group, the plants remained healthy and pulled available phosphorus from the water column, resulting in a lower amount of phosphorus in the water (indicated by the darker shading at the bottom of each column) as compared to groups treated with Formulation 1 and Aquathol® K (as indicated by the lighter shading at the top of each column).",
  "data": [
    {"smiles": "O=C([O-])[C@@H]1[C@H](C(=O)[O-])[C@H]2CC[C@@H]1O2.[K+].[K+]", "note": "[dipotassium endothall]", "values": [
      {"measurement": "plant's phosphorus released into the water", "value": "approximately 27%"}
    ]}
  ]
}
